Measured values published in publication PMC8708274, “Unveiling the Membrane and Cell Wall Action of Antimicrobial Cyclic Lipopeptides: Modulation of the Spectrum of Activity” (Pharmaceutics, 2021).
Read-outs that look alike come from different tables or passages of the source. Positions of bridges follow the written chain, without caps; N, C: chain ends. Non-standard residues stand in square brackets, D forms with d. Residues, ends and D or L forms follow the SMILES beside them. *: point of attachment. dAoc(2) = CCCCCC[C@@H](N)C(=O)O; X1 = CC[C@H](C)CCCCC(=O)*; Heptanoyl = CCCCCCC(=O)*; Nle = CCCC[C@H](N)C(=O)O; Dab = NCC[C@H](N)C(=O)O

What was measured:
[1] = tested on: fresh rabbit erythrocytes; assay: Hemolysis assay; type: cell-based; settings: 335 μM lipopeptide, 1 h at 37 °C, 10 mM Tris 80 mM NaCl pH 7.4, absorbance 540 nm, average of three independent experiments
Description: Hemolytic activity was evaluated on fresh rabbit erythrocytes collected in EDTA collection tubes, as previously described. Briefly, an erythrocite suspension in buffer (10 mM Tris, 80 mM NaCl pH 7.4) was obtained by centrifugation (three times, 10 min at 4000 rpm) and adjusted at an optical density of 1 at 540 nm. Aliquots of 200 µL were incubated for 1 h at 37 °C with the different lipopeptides in 96-well polypropylene microtiter plates and centrifuged (15 min, 5000 rpm). Lipopetide-induced hemolysis was determined by measuring the absorbance at 540 nm of released hemoglobin (Asample) in the supernatant. Each determination was done by triplicate, and as negative and positive controls, erythrocytes in buffer (A0%) and in distilled water (A100%) were employed, respectively. Hemolysis was calculated according the following equation: % hemolysis = 100 · (Asample − A0%/A100% − A0%).

[2] = Kinetics of insertion into monolayers; type: binding; settings: 25 min after injection, 10 mM Tris pH 7.4, 25 °C, average of three independent experiments (error < 10%); for Increase in surface pressure (Δπ), POPE/POPG: POPE/POPG 6:4, initial pressure 32 mN·m^−1, peptide 0.48 μM
Description: (§1) Monolayer studies were performed at room temperature (25 °C) on a monolayer system (NIMA Technology, Coventry, UK) by using a cylindrical PTFE (Teflon®, Wilmington, DE, USA) trough (5 cm diameter) containing a continuously stirred aqueous phase (12 mL, 10 mM Tris pH 7.4) and a Wilhelmy platinum plate connected to an electrobalance. The system was enclosed in a Plexiglass box to reduce surface contamination, and before each run, the plate and the trough were cleaned with hot water at >70 °C to avoid carryover of lipid or peptide. Monolayers of POPG, POPE/POPG (6:4), POPC, or LPS were formed by applying small drops of the lipid stock solutions in CHCl3 on the aqueous subphase with a microsyringe (Hamilton Co., Reno, NV, USA) to achieve a surface pressure of 32 mN·m^−1. After 10 min, allowing for solvent evaporation, a known aliquot of peptide was added without disturbance of the monolayer via an inlet port, and the surface pressure was continuously monitored.

[3] = tested on: Escherichia coli ATTC 25922; type: cell-based
Description: (§2) The minimal peptide concentration required to prevent the growth of a given test organism was determined after incubation overnight at 37 °C and was defined as the MIC. Activity was determined in representative bacteria, Escherichia coli ATTC 25922, Pseudomonas aeruginosa ATTC 27853, and Staphylococcus aureus ATTC 25923, using the broth microdilution method. Serial-two-fold dilutions of peptide (from 0.06 to 32 μg/mL) were performed in Mueller–Hinton broth (MHB) culture medium in sterile 96-well polypropylene microtiter plates inoculated with a final concentration of 5 × 10^5 CFU·mL^−1 of bacteria in each well. Bacteria were in the pre-exponential phase. Each determination was done by triplicate. In order to be considered acceptable, the three MIC results have to differ in only in one well, and the result was always given as the higher of the three. Drug-free and microorganism-free wells were used as positive and negative controls, respectively. Bacterial growth was visually determined on the basis of turbidity.

[4] = tested on: Staphylococcus aureus ATTC 25923; type: cell-based
Description: as §2

[5] = tested on: Pseudomonas aeruginosa ATTC 27853; type: cell-based
Description: as §2

[6] = FRET lipid mixing (NBD-PE/Rh-PE); settings: 1:1 vesicles with 0.6% NBD-PE or Rh-PE, total lipid 107 μM, 25 °C, 10 mM Tris pH 7.4
Description: (§3) Large unilamellar vesicles (LUVs) of POPG, POPE/POPG (6:4), or POPC, alone or with the fluorescently labeled phospholipids NBD-PE or Rh-PE, were prepared by the evaporation of a mixture of the lipids and probes in CHCl3. The solvent was removed by a gentle stream of nitrogen gas followed by overnight storage under vacuum. The dried films were hydrated with Tris 10 mM pH 7.4 to the desired final lipid concentration and then sonicated in a bath type sonicator (Lab Supplies, Hickesville, NY, Model G112SPIT) until a clear dispersion was obtained (typically 3–5 min). […] The average diameter was determined by dynamic light scattering with a Malvern II-C Autosizer, with a z-diameter between 111 and 117 nm, and a polydispersity of 0.1. […] Moreover, they contained 0.2% Rh-PE for monitoring the fluorescence before and after the separation of the unencapsulated material, which was carried out by gel filtration on a Sephadex G-50 column eluted with 10 mM Tris 80 mM NaCl. In this way, the final lipid concentration was calculated taking into account the loss of lipid and the dilution of the sample.
Peptide-induced lipid mixing of vesicles of different composition was investigated in the same spectrofluorimeter, measuring the increase in fluorescence resonance energy transfer (FRET) from an NBD-PE donor population to an Rh-PE acceptor population. […]

[7] = Kinetics of insertion into monolayers; type: binding, Salmonella enterica serotype Minnesota Re 595; settings: initial pressure 32 mN·m^−1, peptide 0.48 μM, 25 min after injection, 10 mM Tris pH 7.4, 25 °C, average of three independent experiments (error < 10%)
Description: as §1

[8] = ANTS/DPX vesicle leakage; settings: 0.9 µM peptide (0.8% peptide mol fraction), lipid 107 µM, 25 °C, 10 mM Tris pH 7.4, ANTS fluorescence
Description: as §3
To assess the leakage of co-encapsulated ANTS and DPX vesicles due to their interaction with peptides, fluorescence measurements were carried out at 25 °C in 1.5 mL 10 mM Tris buffer pH 7.4 on a SLM-Aminco AB-2 spectrofluorimeter with constant stirring. […]

[9] = tested on: E. coli; assay: Transmission electron microscopy of treated bacteria; type: cell-based, Escherichia coli; settings: 1xMIC, 2 h, room temperature, tryptone water
Description: (§4) Then, 500 µL of this culture were added to 50 mL of tryptone water for a concentration of ≈10^8 bacteria·mL^−1. Aliquots of 10 mL were incubated with the lipopeptide at the desired concentration for 2 h at room temperature, and bacterial cells were collected by centrifugation (12,857 g, 20 min). Samples were fixed with 2.5% glutaraldehyde in phosphate buffer for 2 h at 4 °C, washed with the same buffer, and post fixed with 1% osmium tetroxide in buffer containing 0.8% potassium ferricyanide at 4 °C. Then, the samples were dehydrated for 1 h in acetone, infiltrated in a graded series of Epon resin (Ted pella, Inc., Redding, CA, USA) during 2 days, and finally embedded in fresh Epon resin and polymerized at 60 °C during 48 h. Ultrathin sections were obtained using a Leica Ultracut UCT ultramicrotome (Leica, Vienna, Austria) and mounted on Formvar-coated copper grids. Sections were stained with 2% aqueous uranyl acetate and lead citrate and examined in a JEM-1010 electron microscope (Jeol, Tokyo, Japan).

[10] = tested on: P. aeruginosa; assay: as above; type: cell-based, Pseudomonas aeruginosa; settings: 1xMIC, 2 h, room temperature, tryptone water
Description: as §4

[11] = initial pressure 32 mN·m^−1, peptide 0.48 μM
[12] = broth microdilution, MHB, 5 × 10^5 CFU/mL, overnight 37 °C, triplicate, higher of the three
[13] = value in brackets, broth microdilution, MHB, overnight 37 °C, triplicate

SMILES | hemolysis [1] | Increase in surface pressure (Δπ), POPE/POPG [2] | Increase in surface pressure (Δπ), POPC [2, 11] | Increase in surface pressure (Δπ), POPG [2, 11] | MIC EC [3, 12] | MIC EC [3, 13] | MIC SA [4, 12] | MIC SA [4, 13] | MIC PA [5, 12] | MIC PA [5, 13] | lipid mixing (increase in FRET) [6] | Increase in surface pressure (Δπ), LPS [7] | leakage from PE/PG vesicles [8] | ultrastructural effect on E. coli (TEM) [9] | MIC EC ([3]; ATTC 25922) | MIC SA ([4]; ATTC 25923) | MIC PA ([5]; ATTC 27853) | ultrastructural effect on P. aeruginosa (TEM) [10]
CC[C@H](C)CCCCC(=O)N[C@@H](CCN)C(=O)N[C@H](C(=O)N[C@@H](CCN)C(=O)N[C@H]1CCNC(=O)[C@H]([C@@H](C)O)NC(=O)[C@H](CCN)NC(=O)[C@H](CCN)NC(=O)[C@H](CC(C)C)NC(=O)[C@@H](CC(C)C)NC(=O)[C@H](CCN)NC1=O)[C@@H](C)O [PxE, Polymyxin E, reference compound] (X1-[Dab]T[Dab][Dab][Dab][dL]L[Dab][Dab]T; lactam 4-C) | 13% | 7.9 mN·m^−1 | 0.8 mN·m^−1 | 5.3 mN·m^−1 | 1 µg/mL | 0.86 µM | > 32 µg/mL | > 27 µM | 0.5 µg/mL | 0.43 µM | no representative changes | 11.1 mN·m^−1 | – | – | – | – | – | –
CCCCCCC(=O)N[C@@H](CCN)C(=O)N[C@H](C(=O)N[C@@H](CCN)C(=O)N[C@H]1CSSC[C@H](C(N)=O)NC(=O)[C@H](CCN)NC(=O)[C@H](CCN)NC(=O)[C@H](CCCC)NC(=O)[C@@H](CCCCCC)NC(=O)[C@H](CCN)NC1=O)[C@@H](C)O [spE-10] (Heptanoyl-[Dab]T[Dab]C[Dab][dAoc(2)][Nle][Dab][Dab][dC]-NH2; disulfide 4-10) | – | 8.2 mN·m^−1 | 1.8 mN·m^−1 | – | 8 µg/mL | – | > 32 µg/mL | – | 1 µg/mL | – | – | 14.8 mN·m^−1 | no detectable leakage | formation of intracellular membranous structures and cytoplasmic clear zones | 6.7 µM | > 27 µM | 0.84 µM | significant rupture of the cell membranes and cytoplasmic clear zones
